System: C. phytofermentans
Conditions: basal medium; ethanol production from pretreated corn stover
Description: To examine the effect of individual nutrients (e.g., vitamins or amino acids) on the growth and/or ethanol production of C. phytofermentans, complex nutrients such as yeast extract were reduced to a minimal concentration that will permit sub-optimal growth. Each specific nutrient is added in a titration of increasing amount until a “saturation” of effect is observed.
Corn Stover, Mono and Dibasic Potassium Phosphate and Sodium Chloride were sterilized by autoclaving and the remaining components were added aseptically to each fermentation flask. DBY and CSP were separately prepared each as 100 g/L stocks and autoclaved.
All solutions and materials were degassed prior to use. Prior to inoculation, all flasks receive a sterile addition of commercial cellulases (from Novozymes) consisting of (per 100 mL medium): 0.25 mL Cat# NS50013 and 0.83 mL of diluted (1/10 in water) Cat# NS22002. […]
Following inoculation, flasks were placed in shaking fermenters at 35° C. with agitation at 175 rpm and sampled daily. […] Samples were analyzed for sugars (cellobiose, xylose, arabinose, and glucose) and fermentation products (formic, lactic, and acetic acids and ethanol) using HPLC.

## O=C(O)c1cccnc1 [nicotinic acid, Nicotinic acid]
  nicotinic acid supplementation above which a saturation effect is seen: > 10 mg/L

Source: patent publication US20120107888A1, “MODULATION OF FERMENTATION PRODUCTS THROUGH VITAMIN SUPPLEMENTATION” (Qteros, Inc., priority 2011, published 2012)
